Measured values as given in patent publication US4634707A, “5-Pyrimidinecarboxamides and treatment of leukemia and tumors therewith” (Uniroyal Chemical Company, priority 1984, dated 1987).

Key:
[1] = system: Ehrlich Ascites carcinoma; settings: Ehrlich Ascites carcinoma in mice; Chem. & Pharm. Bull. (Tokyo) 8, 1021-1028 (1960); cited from earlier work
L1210 leukemia = experiment: NCI 3LE31, i.p.-implanted L1210 lymphoid leukemia; type: in vivo, DBA/2 mice; settings: for T/C % (survival time treated/control) / response vs control in vivo at 200 mg/kg: 200 mg/kg i.p. daily for nine days; for response vs control in vivo at 25 mg/kg: 25 mg/kg i.p. daily for nine days; for response vs control in vivo at 50 mg/kg: 50 mg/kg i.p. daily for nine days; for response vs control in vivo at 100 mg/kg: 100 mg/kg i.p. daily for nine days
Method: The spectrum of antitumor activity of the compound of Example 1 was determined employing a number of standard National Cancer Institute (NCI) protocols. The antitumor activity was determined in vivo against several different tumors, employing various treatment schedules and routes of administration.
Samples of the test compounds of Examples 1-10 and a number of structurally-related control compounds were tested in accordance with National Cancer Institute test protocol 3LE31 (NCI Protocol 1.100, Cancer Chemotherapy Reports Part 3, Vol. 3, No. 2, September 1972) to determine the effects of the several compounds on i.p.-implanted L1210 leukemia (J. Nat'l. Cancer Inst. 13(5):1328, 1953). Each test involved implantation of the leukemia cells in six DBA/2 mice, one sex per experiment, the male mice weighing a minimum of 18 grams and the female mice weighing a minimum of 17 grams, and all of the test animals being within a three gram weight range. The test compound was administered by i.p. injections, in 0.1 ml. doses of diluted ascitic fluid (10^5 cells per dose), commencing one day after the tumor implant and continuing daily for nine days.
The test animals were weighed and survivors recorded on a regular basis during a thirty day test period. The ratio of survival time for the treated and control animals (T/C) was determined as a percentage.
The tests were carried out at varying dosage levels and with varying numbers of repetitions, depending upon the results obtained with each test compoud. […] A reproducible T/C of 150% or higher is considered significant activity.
The number of mice "cured", viz., those surviving from each animal test group after the thirty day test period, is indicated in parenthesis following the T/C percentage data in Table III below: […]

[2] = Mus musculus, L1210, ip, read-out: T/C % (survival time treated/control)

Compound	anti-tumor activity (in words) [1]	response vs control in vivo at 25 mg/kg (L1210 leukemia; [2]) [%]	response vs control in vivo at 50 mg/kg (L1210 leukemia; [2]) [%]	response vs control in vivo at 100 mg/kg (L1210 leukemia; [2]) [%]	response vs control in vivo at 200 mg/kg (L1210 leukemia; [2]) [%]	other results
Cn1c(O)c(C(=O)Nc2ccccc2)c(=O)[nH]c1=O [1-methyl derivative]	neither of its 1-methyl or 1-phenyl-substituted derivatives, exhibited anti-tumor activity					
O=C(Nc1ccccc1)c1c(O)n(-c2ccccc2)c(=O)[nH]c1=O [1-phenyl derivative]	neither of its 1-methyl or 1-phenyl-substituted derivatives, exhibited anti-tumor activity					
O=C1NC(=O)C(C(=O)Nc2ccccc2)C(=O)N1 [5-phenylcarbamoylbarbituric acid]	exhibited anti-tumor activity					
O=C(Nc1ccc(F)cc1)c1c(O)[nH]c(=S)[nH]c1=O [Example 5, N-(4-fluorophenyl)-1,2,3,4-tetrahydro-6-hydroxy-4-oxo-2-thioxo-5-pyrimidinecarboxamide]		111	112	133		T/C % (survival time treated/control) (L1210 leukemia): Toxic; activity in i.p.-implanted lymphoid leukemia test (in words) (L1210 leukemia; 3LE31, reproducible T/C of 150% or higher is considered significant activity): With the exception of the compound of Example 5, the materials of the other examples similarly exhibited significant activity
COc1ccc(NC(=O)c2c(O)[nH]c(=S)[nH]c2=O)cc1 [Example 6, 1,2,3,4-tetrahydro-6-hydroxy-N-(4-methoxyphenyl)-4-oxo-2-thioxo-5-pyrimidinecarboxamide]		112	108	104	127	response vs control in vivo at 400 mg/kg (L1210 leukemia; Mus musculus, L1210, ip, 400 mg/kg i.p. daily for nine days, read-out: T/C % (survival time treated/control)): 127%
CCOc1ccc(NC(=O)c2c(O)[nH]c(=S)[nH]c2=O)cc1 [Example 7, N-(4-ethoxyphenyl)-1,2,3,4-tetrahydro-6-hydroxy-4-oxo-2-thioxo-5-pyrimidinecarboxamide]		115		178		T/C % (survival time treated/control) (L1210 leukemia): Toxic; response vs control in vivo at 6.25 mg/kg (L1210 leukemia; Mus musculus, L1210, ip, 6.25 mg/kg i.p. daily for nine days, read-out: T/C % (survival time treated/control)): 102%; response vs control in vivo at 12.5 mg/kg (L1210 leukemia; Mus musculus, L1210, ip, 12.5 mg/kg i.p. daily for nine days, read-out: T/C % (survival time treated/control)): 97%
O=C(Nc1ccccc1F)c1c(O)[nH]c(=S)[nH]c1=O [Example 8, N-(2-fluorophenyl)-1,2,3,4-tetrahydro-6-hydroxy-4-oxo-2-thioxo-5-pyrimidinecarboxamide]		148	105	128	118	
O=C(Nc1ccc(F)cc1F)c1c(O)[nH]c(=S)[nH]c1=O [Example 9, N-(2,4-difluorophenyl)-1,2,3,4-tetrahydro-6-hydroxy-4-oxo-1-thioxo-5-pyrimidinecarboxamide]		113	113	114	133	
COc1ccc(C)cc1NC(=O)c1c(O)[nH]c(=S)[nH]c1=O [Example 10, 1,2,3,4-tethydro-6-hydroxy-N-(2-methoxy-5-methylphenyl)-4-oxo-2-thioxo-5-pyrimidinecarboxamide]		110	130	113	113	
